Molecules are shown by their SMILES. pEC50: −log10 of the molar value. Bounds are passed on as bounds.

The values that follow come from patent US20200123146A1, “HETEROCYCLIC INTEGRIN AGONISTS” (GB006, Inc., priority 2016, published 2020).

The assay has as its target T1, integrin CD11b/CD18 (K562 CD11b/CD18 cells) (Homo sapiens, UniProt P05107+P11215).
T1 construct: host or cells: K562 cells stably transfected with wild-type CD11b/CD18
The assay is described as follows: K562 cell adhesion assay with immobilized ligands. It is filed as cell-based. The following applies: cell-based adhesion assay, K562 cells, 30 min at 37° C. An excerpt:
Cell Lines. K562 cells (ATCC) stably transfected with wild-type integrin CD11b/CD18 (K562 CD11b/CD18) have been described previously (Park, etal. J Biomol Screen, 2007. 12(3): 406; Gupta, et al., Blood, 2007. 109(8): 3513; incorporated herein by reference in their entirety). Mutant CD11bE320A has been described previously (Alonso, et al. Curr Biol, 2002. 12(10): R340; incorporated herein by reference in its entirety). K562 cells stably transfected with mutant integrin CD11bE320A/CD18 (K562 E320A) were generated according to literature protocols (Park, supra; Gupta, supra). All cell lines were maintained in Iscove's Modified Dulbecco's Medium (IMDM) supplemented with 10% heat-inactivated fetal bovine serum, 50 IU/ml penicillin and streptomycin and 0.5 mg/ml G418.
K562 Cell Adhesion Assay. Cell adhesion assays with immobilized ligands were performed as previously described (Park, supra). Assays with all different K562 cell lines (K562, K562 CD11b/CD18 and K562 E320A) were performed in an identical fashion. Briefly, 384-well Highbind microtiter plates were coated with a 30 μL solution of ligand in Phosphate Buffered Saline, pH 7.4 containing 1 mM each of Ca^2+ and Mg^2+ ions (PBS^++) overnight at 4° C. Ligand Fg was coated at a concentration of 5-15 μg/mL and iC3b at 1-5 μg/mL. Heterodimer specific mAb IB4 was coated at 1-20 μg/mL. Subsequently, the non-specific sites in the wells were blocked by incubation with 1% non-fat milk in Tris Buffered Saline (TBS), pH 7.4, at room temperature for 1 h. Next, the wells were washed three times with TBS. K562 cells were suspended in the assay buffer (TBS containing 1 mM each of Ca^2+ and Mg^2+ ions (TBS^++)) and were transferred to the ligand-coated wells (30,000 cells/well). Stock solutions of the integrin agonists were prepared by dissolving the compounds in DMSO at a concentration of 2-10 mM. Final concentration of DMSO in the assay was approximately 1-2%. K562 cells were incubated in the presence of increasing concentration of integrin agonist for 30 min at 37° C. To dislodge non-adherent cells, the assay plates were gently inverted and kept in the inverted position for 30 min at room temperature. Cells remaining adherent were fixed using formaldehyde and were quantitated using imaging microscopy, as previously described (Park, supra).

Consider `Cc1cccc(CN2C(=O)/C(=C/c3ccc(-c4ccc(C(=O)O)cc4)o3)SC2=S)c1` [Compound 28, (Z)-4-(5-((3-(3-Methylbenzyl)-4-oxo-2-thioxothiazolidin-5-lidene)methyl)furan-2-yl)benzoic acid], for which the pEC50 is 6.00 to 6.60. The same measure for `Cc1cccc(CN2C(=O)/C(=C/c3ccc(-c4ccc(C(=O)O)cc4)o3)SC2=S)c1C` [Compound 31, (Z)-4-(5-((3-(2,3-Dimethylbenzyl)-4-oxo-2-thioxothiazolidin-5-ylidene)methyl)furan-2-yl)benzoic acid]: 6.00 to 6.60; for `COC(=O)c1ccc(-c2cccc(/C=C3\SC(=S)N(Cc4ccccc4)C3=O)n2)cc1` [Compound 24, Methyl (Z)-4-(6-((3-benzyl-4-oxo-2-thioxothiazolidin-5-ylidene)methyl)pyridin-2-yl)benzoate]: less than 5.00. To `O=C(O)c1ccc(-c2ccc(/C=C3\NC(=S)N(Cc4ccccc4)C3=O)o2)cc1` [Compound 4, (Z)-4-(5-((1-Benzyl-5-oxo-2-thioxoimidazolidin-4-ylidene)methyl)furan-2-yl)benzoic acid] belongs 5.00 to 6.00; to `O=C(O)c1ccc(-c2cccc(/C=C3\SC(=S)N(Cc4ccccc4)C3=O)c2)cc1` [Compound 17, (Z)-3′-((3-Benzyl-4-oxo-2-thioxothiazolidin-5-ylidene)methyl)-[1,1′-biphenyl]-4-carboxylic acid], 5.00 to 6.00. The same measure for `O=C(O)c1ccc(-c2ccc(/C=C3\NC(=O)N(Cc4ccccc4)C3=O)o2)cc1` [Compound 3, (Z)-4-(5-((1-Benzyl-2,5-dioxoimidazolidin-4-ylidene)methyl)furan-2-yl)benzoic acid]: less than 5.00. As for `CN1C(=O)N(Cc2ccccc2)C(=O)/C1=C/c1ccc(-c2ccc(C(=O)O)cc2)o1` [Compound 2, (Z)-4-(5-((1-Benzyl-3-methyl-2,5-dioxoimidazolidin-4-ylidene)methyl)furan-2-yl)benzoic acid], the pEC50 was less than 5.00. The same measure for `COC(=O)c1ccc(-c2ccc(/C=C3\SC(=S)N(Cc4ccccc4)C3=O)o2)cn1` [Compound 13, Methyl (Z)-5-(5-((3-benzyl-4-oxo-2-thioxothiazolidin-5-ylidene)methyl)furan-2-yl)picolinate]: 6.00 to 6.60. The same measure for `CCOC(=O)c1ccc(-c2ccc(CN3CC(=O)N(Cc4ccccc4)C3=O)o2)cc1` [Compound 6, Ethyl 4-(5-((3-benzyl-2,4-dioxoimidazolidin-1-yl)methyl)furan-2-yl)benzoate]: less than 5.00; for `COC(=O)c1ccc(-c2ccc(/C=C3\OC(=S)N(Cc4ccc(F)cc4)C3=O)o2)cn1` [Compound 10, methyl (Z)-5-(5-((3-(4-fluorobenzyl)-4-oxo-2-thioxooxazolidin-5-ylidene)methyl)furan-2-yl)picolinate]: 6.00 to 6.60.

For `CN1C(=S)N(Cc2ccccc2)C(=O)/C1=C/c1ccc(-c2ccc(C(=O)O)cc2)o1` [Compound 5, (Z)-4-(5-((1-Benzyl-3-methyl-5-oxo-2-thioxoimidazolidin-4-ylidene)methyl)furan-2-yl)benzoic acid], the pEC50 is less than 5.00. To `COC(=O)c1ccc(-c2cccc(/C=C3\SC(=S)N(Cc4ccccc4)C3=O)c2)cc1` [Compound 23, methyl (Z)-3′-((3-benzyl-4-oxo-2-thioxothiazolidin-5-ylidene)methyl)-[1,1′-biphenyl]-4-carboxylate] belongs less than 5.00; to `O=C(O)c1ccc(-c2nccc(/C=C3\SC(=S)N(Cc4ccccc4)C3=O)n2)cc1` [Compound 19, (Z)-4-(4-((3-Benzyl-4-oxo-2-thioxothiazolidin-5-ylidene)methyl)pyrimidin-2-yl)benzoic acid], 5.00 to 6.00. Turning to `O=C(O)c1ccc(-c2ccc(/C=C3\SC(=S)N(Cc4ccccc4)C3=O)s2)cc1` [Compound 25, (Z)-4-(5-((3-Benzyl-4-oxo-2-thioxothiazolidin-5-ylidene)methyl)thiophen-2-yl)benzoic acid], the pEC50 was 6.60 to 7.00. Turning to `O=C(O)c1ccc(-c2ccc(/C=C3\SC(=S)N(Cc4ccccc4Cl)C3=O)o2)cc1` [Compound 36, (Z)-4-(5-((3-(2-Chlorobenzyl)-4-oxo-2-thioxothiazolidin-5-ylidene)methyl)furan-2-yl)benzoic acid], the pEC50 was 6.00 to 6.60. The same measure for `Cc1ccc(CN2C(=O)/C(=C/c3ccc(-c4ccc(C(=O)O)cc4)o3)SC2=S)cc1C` [Compound 38, (Z)-4-(5-((3-(3,4-Dimethylbenzyl)-4-oxo-2-thioxothiazolidin-5-ylidene)methyl)furan-2-yl)benzoic acid]: 6.60 to 7.00. `Cc1ccc(CN2C(=O)/C(=C/c3ccc(-c4ccc(C(=O)O)cc4)o3)SC2=S)c(C)c1` [Compound 37, (Z)-4-(5-((3-(2,4-Dimethylbenzyl)-4-oxo-2-thioxothiazolidin-5-ylidene)methyl)furan-2-yl)benzoic acid]: the pEC50 is 5.00 to 6.00. The same measure for `COc1ccccc1CN1C(=O)/C(=C/c2ccc(-c3ccc(C(=O)O)cc3)o2)SC1=S` [Compound 27, (Z)-4-(5-((3-(2-Methoxybenzyl)-4-oxo-2-thioxothiazolidin-5-ylidene)methyl)furan-2-yl)benzoic acid]: 6.00 to 6.60; for `O=C(O)c1ccc(-c2cccc(/C=C3\SC(=S)N(Cc4ccc(F)cc4)C3=O)n2)cc1` [Compound 21, (Z)-4-(6-((3-(4-Fluorobenzyl)-4-oxo-2-thioxothiazolidin-5-ylidene)methyl)pyridin-2-yl)benzoic acid]: 6.00 to 6.60. To `O=C(O)c1ccc(-c2ccc(/C=C3\SC(=S)N(Cc4ccccc4)C3=O)o2)nc1` [Compound 14, (Z)-6-(5-((3-Benzyl-4-oxo-2-thioxothiazolidin-5-ylidene)methyl)furan-2-yl)nicotinic acid] belongs 6.00 to 6.60. The same measure for `COC(=O)c1ccc(-c2ccc(/C=C3\SC(=S)N(Cc4ccc(F)cc4)C3=O)o2)cn1` [Compound 16, Methyl (Z)-5-(5-((3-(4-fluorobenzyl)-4-oxo-2-thioxothiazolidin-5-ylidene)methyl)furan-2-yl)picolinate]: 6.60 to 7.00. Take `COc1cccc(CN2C(=O)/C(=C/c3ccc(-c4ccc(C(=O)O)cc4)o3)SC2=S)c1` [Compound 29, (Z)-4-(5-((3-(3-Methoxybenzyl)-4-oxo-2-thioxothiazolidin-5-ylidene)methyl)furan-2-yl)benzoic acid]: the pEC50 was 6.00 to 6.60. `O=C(O)c1ccc(-c2cccc(/C=C3\SC(=S)N(Cc4ccccc4)C3=O)n2)cc1` [Compound 18, (Z)-4-(6-((3-Benzyl-4-oxo-2-thioxothiazolidin-5-ylidene)methyl)pyridin-2-yl)benzoic acid] had a pEC50 of 5.00 to 6.00. The same measure for `COc1ccc(CN2C(=O)/C(=C/c3ccc(-c4ccc(C(=O)O)cc4)o3)SC2=S)cc1` [Compound 34, (Z)-4-(5-((3-(4-Methoxybenzyl)-4-oxo-2-thioxothiazolidin-5-ylidene)methyl)furan-2-yl)benzoic acid]: 6.60 to 7.00. To `CC(C)c1ccc(CN2C(=O)/C(=C/c3ccc(-c4ccc(C(=O)O)cc4)o3)SC2=S)cc1` [Compound 39, (Z)-4-(5-((3-(4-Isopropylbenzyl)-4-oxo-2-thioxothiazolidin-5-ylidene)methyl)furan-2-yl)benzoic acid] belongs 6.00 to 6.60.

A word on the pEC50: it is the EC50 on a negative log10 scale, so that one unit is a factor of ten.
